Where two headings read alike, the source gives them in different places.
Columns and labels:
C. auris B11245 = assay: microbe, parasite or virus in culture; assay type: cell-based, Candida auris
Method in brief: (§1)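 Yeasts were grown overnight in YPD, washed twice in water, taken up in PBS and diluted to 5000 cfu/mL in RPMI. They were then added to plates holding 2-fold serial drug dilutions in RPMI1640 and incubated at 37 °C for 2 days.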

C. glabrata 2001 = assay: microbe, parasite or virus in culture; assay type: cell-based, Candida glabrata; settings: Nakaseomyces glabratus, 2001; compound alone; RPMI1640, 37 °C, 48 h; read-out: MIC
Method in brief: as §1

C. glabrata FKS1-S629P = assay: microbe, parasite or virus in culture; assay type: cell-based, Candida glabrata; settings: Nakaseomyces glabratus, FKS1S629P, 48 h
Method in brief: as §1

C. glabrata FKS2-S663P = assay: microbe, parasite or virus in culture; assay type: cell-based, Candida glabrata; settings: Nakaseomyces glabratus, FKS2S663P, 48 h
Method in brief: as §1

Cn apt1Δ = assay: microbe, parasite or virus in culture; assay type: cell-based, Cryptococcus neoformans; settings: Cryptococcus neoformans, 48 h, 37 °C, 48 h
Cn crm1Δ = assay: microbe, parasite or virus in culture; assay type: cell-based, Cryptococcus neoformans; settings: Cryptococcus neoformans, 48 h, 37 °C
Cn Crm1-oe = assay: microbe, parasite or virus in culture; assay type: cell-based, Cryptococcus neoformans; settings: Cryptococcus neoformans, CRM1OE, 48 h, 37 °C
C. neoformans H99 = assay type: cell-based, Cryptococcus neoformans; settings: RPMI1640, 37 °C; for MIC of antifungal in combination with KKOO / MIC of antifungal in combination with KKOO-NH2: 48 h
Cn cdc50Δ = assay: microbe, parasite or virus in culture; assay type: cell-based, Cryptococcus neoformans; settings: 48 h, 37 °C, 48 h
Method in brief: (§2)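 MICs were determined by CLSI M27 broth microdilution in RPMI1640, using 2-fold serial dilutions and a 5000 cfu/mL yeast inoculum, with incubation for 2 days at 37 °C. Separate MIC tests were run in YPD enriched with CaCl2 or MgCl2.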

Cn H99 = assay: microbe, parasite or virus in culture; assay type: cell-based, Cryptococcus neoformans; settings: Cryptococcus neoformans, H99, 48 h, 37 °C, 48 h, read-out: MIC
Method in brief: as §2

OC(Cn1cncn1)(Cn1cncn1)c1ccc(F)cc1F [FLC, fluconazole]
4 µg/mL: MIC (Cn crm1Δ; YPD + 0 mM Ca2+) | MIC (Cn crm1Δ; YPD + 2.5 mM Ca2+) | MIC (Cn crm1Δ; YPD + 5 mM Ca2+) | MIC (Cn H99; YPD + 0 mM Mg2+) | MIC (Cn H99; YPD + 2.5 mM Mg2+)
8 µg/mL: MIC (C. glabrata 2001) | MIC (Cn crm1Δ; YPD + 10 mM Ca2+) | MIC (Cn crm1Δ; YPD + 20 mM Ca2+) | MIC (Cn H99; YPD + 0 mM Ca2+) | MIC (Cn H99; YPD + 2.5 mM Ca2+) | MIC (Cn H99; YPD + 5 mM Ca2+) | MIC (Cn H99; YPD + 10 mM Ca2+) | MIC (Cn H99; YPD + 20 mM Ca2+)
>128 µg/mL: MIC (C. auris B11245; compound alone, RPMI1640, 37 °C, 48 h, * = paradoxical growth observed (CAS))
2 µg/mL: MIC (C. glabrata FKS1-S629P) | MIC (C. glabrata FKS2-S663P) | MIC (Cn Crm1-oe; YPD + 2.5 mM Ca2+) | MIC (Cn Crm1-oe; YPD + 5 mM Ca2+) | MIC (Cn Crm1-oe; YPD + 10 mM Ca2+) | MIC (Cn Crm1-oe; YPD + 20 mM Ca2+) | MIC of antifungal in combination with (FITC)KKOO (C. neoformans H99; +0 μg/mL (FITC)KKOO) | MIC of antifungal in combination with KKOO (C. neoformans H99; +0 μg/mL KKOO (control)) | MIC of antifungal in combination with KKOO-NH2 (C. neoformans H99; +0 μg/mL KKOO-NH2 (control)) | MIC of antifungal in combination with KKOO-NH2 (C. neoformans H99; +1 μg/mL KKOO-NH2) | MIC of antifungal in combination with KKOO (C. neoformans H99; +1 μg/mL KKOO) | MIC of antifungal in combination with KKOO-NH2 (C. neoformans H99; +2 μg/mL KKOO-NH2) | MIC of antifungal in combination with KKOO (C. neoformans H99; +2 μg/mL KKOO) | MIC of antifungal in combination with (FITC)KKOO (C. neoformans H99; +4 μg/mL (FITC)KKOO) | MIC of antifungal in combination with KKOO (C. neoformans H99; +4 μg/mL KKOO) | MIC of antifungal in combination with (FITC)KKOO (C. neoformans H99; +8 μg/mL (FITC)KKOO) | MIC (Cn H99; YPD + 5 mM Mg2+) | MIC (Cn H99; YPD + 10 mM Mg2+) | MIC (Cn H99; YPD + 20 mM Mg2+)
1/8: MIC (Cn cdc50Δ; YPD + 10 mM Mg2+, unit not given)
½: MIC (Cn cdc50Δ; YPD + 0 mM Mg2+, unit not given)
> 128 µg/mL: MIC (C. auris B11245; Candidozyma auris, B11245, 48 h)
0.25 µg/mL: MIC (Cn apt1Δ; YPD + 0 mM Ca2+) | MIC (Cn cdc50Δ; Cryptococcus neoformans, YPD + 10 mM Ca2+) | MIC (Cn cdc50Δ; Cryptococcus neoformans, YPD + 20 mM Ca2+)
1 µg/mL: MIC (Cn apt1Δ; YPD + 5 mM Ca2+) | MIC (Cn Crm1-oe; YPD + 0 mM Ca2+) | MIC of antifungal in combination with KKOO-NH2 (C. neoformans H99; +4 μg/mL KKOO-NH2) | MIC of antifungal in combination with KKOO (C. neoformans H99; +8 μg/mL KKOO)
0.5 µg/mL: MIC (Cn apt1Δ; YPD + 2.5 mM Ca2+) | MIC (Cn apt1Δ; YPD + 10 mM Ca2+) | MIC (Cn apt1Δ; YPD + 20 mM Ca2+) | MIC (Cn cdc50Δ; Cryptococcus neoformans, YPD + 0 mM Ca2+) | MIC (Cn cdc50Δ; Cryptococcus neoformans, YPD + 2.5 mM Ca2+) | MIC (Cn cdc50Δ; Cryptococcus neoformans, YPD + 5 mM Ca2+)
¼: MIC (Cn cdc50Δ; YPD + 2.5 mM Mg2+, unit not given) | MIC (Cn cdc50Δ; YPD + 5 mM Mg2+, unit not given)
1/16: MIC (Cn cdc50Δ; YPD + 20 mM Mg2+, unit not given)

Reference: publication PMC11555678, “Improved Broad Spectrum Antifungal Drug Synergies with Cryptomycin, a Cdc50-Inspired Antifungal Peptide” (ACS Infectious Diseases, 2024)
